Measured values as given in ChEMBL document CHEMBL1121670, “Aporphines. 34. (-)-2,10,11-Trihydroxy-N-n-propylnoraporphine, a novel dopaminergic aporphine alkaloid with anticonvulsant activity” (1981).

How the values were obtained:
Papio papio [1] = assay: Duration of protection for abolition of myoclonic responses to photic stimulation in the baboon (Papio papio) at 0.2 mg/kg; Duration of protection ranges from 180-300 min; format: functional
Mus musculus [2] = species on record: Mus musculus; assay: Evaluated for audiogenic seizures in DBA/ 2 mice, in the protection against paroxysimal EEG at an interval of 30 minutes; format: functional; details: 0.5 h
[3] = biological target: Adenylate cyclase type 5 (Homo sapiens) (UniProt O95622); assay: Compound was evaluated for the elicited effect on adenylate cyclase activity in homogenates of carp retina at 10 uM; format: functional, tissue-based; details: Cyprinus carpio
Papio papio [4] = assay: Duration of protection for abolition of myoclonic responses to photic stimulation in the baboon (Papio papio) at 0.5 mg/kg; Duration of protection ranges from 30-45 min; format: functional
Mus musculus [5] = species on record: Mus musculus; assay: Evaluated for audiogenic seizures in DBA/ 2 mice, in the protection against paroxysimal EEG at an interval of 20 minutes; format: functional
Mus musculus [6] = species on record: Mus musculus; assay: Evaluated for audiogenic seizures in DBA/ 2 mice, in the protection against paroxysimal EEG at an interval of 60 minutes; format: functional; details: 1 h
Papio papio [7] = assay: Duration of protection for abolition of myoclonic responses to photic stimulation in the baboon (Papio papio) at 0.2 mg/kg; format: functional

Chain of Adenylate cyclase type 5 (Homo sapiens) (O95622 whole entry, looked up): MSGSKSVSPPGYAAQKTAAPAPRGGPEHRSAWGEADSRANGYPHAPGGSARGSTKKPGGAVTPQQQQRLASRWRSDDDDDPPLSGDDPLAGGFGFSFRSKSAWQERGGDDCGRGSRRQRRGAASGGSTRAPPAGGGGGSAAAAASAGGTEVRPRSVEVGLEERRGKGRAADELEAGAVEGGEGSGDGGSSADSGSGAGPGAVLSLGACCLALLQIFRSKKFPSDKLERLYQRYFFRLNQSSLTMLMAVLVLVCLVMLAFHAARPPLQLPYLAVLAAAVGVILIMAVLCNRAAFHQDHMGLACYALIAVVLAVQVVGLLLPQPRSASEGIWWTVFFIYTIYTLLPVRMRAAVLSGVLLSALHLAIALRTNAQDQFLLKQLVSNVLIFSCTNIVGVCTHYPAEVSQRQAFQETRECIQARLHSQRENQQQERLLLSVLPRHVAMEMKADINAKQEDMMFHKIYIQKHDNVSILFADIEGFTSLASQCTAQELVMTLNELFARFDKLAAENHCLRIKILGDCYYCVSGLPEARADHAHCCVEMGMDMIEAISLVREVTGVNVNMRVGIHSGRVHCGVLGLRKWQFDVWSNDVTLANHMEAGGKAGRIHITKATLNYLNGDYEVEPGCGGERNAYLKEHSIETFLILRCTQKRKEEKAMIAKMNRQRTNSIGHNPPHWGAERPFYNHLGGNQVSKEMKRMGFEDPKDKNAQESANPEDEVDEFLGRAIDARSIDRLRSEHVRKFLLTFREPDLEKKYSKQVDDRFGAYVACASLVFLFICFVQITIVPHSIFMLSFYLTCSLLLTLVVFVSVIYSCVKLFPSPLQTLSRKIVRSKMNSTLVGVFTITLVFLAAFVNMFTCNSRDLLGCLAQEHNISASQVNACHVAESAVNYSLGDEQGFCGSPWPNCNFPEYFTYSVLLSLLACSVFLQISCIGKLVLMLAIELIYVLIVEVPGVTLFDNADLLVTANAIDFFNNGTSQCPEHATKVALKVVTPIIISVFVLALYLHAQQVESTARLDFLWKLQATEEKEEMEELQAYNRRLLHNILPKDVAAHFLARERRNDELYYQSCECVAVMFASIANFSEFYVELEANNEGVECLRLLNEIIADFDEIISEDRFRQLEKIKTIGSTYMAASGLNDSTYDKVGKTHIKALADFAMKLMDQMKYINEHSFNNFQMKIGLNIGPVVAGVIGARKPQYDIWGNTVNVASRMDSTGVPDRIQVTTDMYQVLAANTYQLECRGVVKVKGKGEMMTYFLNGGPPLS

Compound: CCCN1CCc2cc(O)cc3c2[C@H]1Cc1ccc(O)c(O)c1-3
- Duration (Papio papio [1]): 180 min
- ED50 (Mus musculus [2]): 0.72 mg/kg
- Response [3]: 43.4%

Compound: CN1CCc2cccc3c2[C@H]1Cc1ccc(O)c(O)c1-3 [APOMORPHINE]
- Duration (Papio papio [4]): 30 min
- ED50 (Mus musculus [5]): 0.7 mg/kg

Compound: CC(C)C[C@H]1C(=O)N2CCC[C@H]2[C@]2(O)O[C@](NC(=O)[C@@H]3C=C4c5cccc6[nH]c(Br)c(c56)C[C@H]4N(C)C3)(C(C)C)C(=O)N12 [BROMOCRIPTINE]
- ED50 (Mus musculus [6]): 5 mg/kg

Compound: CCCN1CCc2cccc3c2[C@H]1Cc1ccc(O)c(O)c1-3 [R-N-PROPYLNORAPOMORPHINE]
- Duration (Papio papio [7]): 180 min
- ED50 (Mus musculus [2]): 0.075 mg/kg
